Test results from PubChem BioAssay AID250 (DTP/NCI, 2004).
“And” between values parts separate entries of the source, which are not always exact repeats. Equal values may be shown once. Toxic doses and inconclusive results are not listed.

Tested on: BDF1 mice, L1210 leukemia sc, survival T/C
Experiment: NCI In Vivo Anticancer Drug Screen. Data for tumor model L1210 Leukemia (subcutaneous) in B6D2F1 (BDF1) mice
Settings: higher = longer survival
Method in brief: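 Read-out: T/C ratio, i.e. survival or tumor size in treated mice over that in vehicle-treated controls, from mice bearing transplantable tumors.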

## S=c1nc[nH]c2nc[nH]c12
endpoint: mean survival time, dose: 60.0 mg/kg/injection, schedule: Q01DX001 (ip), vehicle: saline
  T/C: 106 % of control
endpoint: mean survival time, dose: 90.0 mg/kg/injection, schedule: Q01DX001 (ip), vehicle: saline
  T/C: 110 % of control
endpoint: mean survival time, dose: 120.0 mg/kg/injection, schedule: Q01DX001 (ip), vehicle: saline
  T/C: 110 % of control
endpoint: mean survival time, dose: 240.0 mg/kg/injection, schedule: Q01DX001 (ip), vehicle: saline
  T/C: 116 % of control
endpoint: median survival time, dose: 0.65 mg/kg/injection, schedule: Q02DX Z (sc), vehicle: other
  T/C: 116 % of control
endpoint: median survival time, dose: 5.0 mg/kg/injection, schedule: Q01DX009 (sc), vehicle: other
  T/C: 109 % of control
endpoint: median survival time, dose: 5.0 mg/kg/injection, schedule: Q## X Z (sc), vehicle: other
  T/C: 105 % of control
endpoint: median survival time, dose: 10.0 mg/kg/injection, schedule: Q01DX009 (sc), vehicle: other
  T/C: 113 % of control
endpoint: median survival time, dose: 10.0 mg/kg/injection, schedule: Q01DX Z (sc), vehicle: methylcellulose (MC)
  T/C: 105 % of control
endpoint: median survival time, dose: 12.5 mg/kg/injection, schedule: Q01DX012 (ip), vehicle: other
  T/C: 122 % of control
endpoint: median survival time, dose: 14.0 mg/kg/injection, schedule: Q01DX Z (ip), vehicle: other
  T/C: 100 % of control
endpoint: median survival time, dose: 14.0 mg/kg/injection, schedule: Q01DX Z (oral), vehicle: methylcellulose (MC)
  T/C: 100 % of control and 104 % of control
endpoint: median survival time, dose: 14.0 mg/kg/injection, schedule: Q01DX Z (sc), vehicle: other
  T/C: 100 % of control (2×) and 110 % of control
endpoint: median survival time, dose: 14.0 mg/kg/injection, schedule: Q#A X Z (sc), vehicle: other
  T/C: 105 % of control and 115 % of control
endpoint: median survival time, dose: 17.0 mg/kg/injection, schedule: Q01DX Z (oral), vehicle: methylcellulose (MC)
  T/C: 95 % of control
endpoint: median survival time, dose: 17.0 mg/kg/injection, schedule: Q01DX Z (sc), vehicle: methylcellulose (MC)
  T/C: 100 % of control and 110 % of control
endpoint: median survival time, dose: 20.0 mg/kg/injection, schedule: Q01DX009 (sc), vehicle: other
  T/C: 124 % of control
endpoint: median survival time, dose: 23.0 mg/kg/injection, schedule: Q01DX Z (ip), vehicle: other
  T/C: 100 % of control
endpoint: median survival time, dose: 23.0 mg/kg/injection, schedule: Q01DX Z (oral), vehicle: methylcellulose (MC)
  T/C: 100 % of control
endpoint: median survival time, dose: 23.0 mg/kg/injection, schedule: Q01DX Z (sc), vehicle: methylcellulose (MC)
  T/C: 109 % of control
endpoint: median survival time, dose: 23.0 mg/kg/injection, schedule: Q02DX Z (sc), vehicle: other
  T/C: 94 % of control
endpoint: median survival time, dose: 23.0 mg/kg/injection, schedule: Q#A X Z (sc), vehicle: other
  T/C: 105 % of control
endpoint: median survival time, dose: 28.0 mg/kg/injection, schedule: Q01DX Z (oral), vehicle: methylcellulose (MC)
  T/C: 100 % of control
endpoint: median survival time, dose: 28.0 mg/kg/injection, schedule: Q01DX Z (sc), vehicle: methylcellulose (MC)
  T/C: 109 % of control
endpoint: median survival time, dose: 28.0 mg/kg/injection, schedule: Q01DX Z (sc), vehicle: other
  T/C: 110 % of control
endpoint: median survival time, dose: 38.9 mg/kg/injection, schedule: Q01DX Z (sc), vehicle: methylcellulose (MC)
  T/C: 150 % of control
endpoint: median survival time, dose: 38.9 mg/kg/injection, schedule: Q01DX Z (sc), vehicle: other
  T/C: 100 % of control and 105 % of control
endpoint: median survival time, dose: 39.0 mg/kg/injection, schedule: Q01DX001 (sc), vehicle: other
  T/C: 105 % of control
endpoint: median survival time, dose: 39.0 mg/kg/injection, schedule: Q01DX Z (ip), vehicle: other
  T/C: 110 % of control
endpoint: median survival time, dose: 39.0 mg/kg/injection, schedule: Q01DX Z (oral), vehicle: methylcellulose (MC)
  T/C: 104 % of control
endpoint: median survival time, dose: 39.0 mg/kg/injection, schedule: Q02DX Z (sc), vehicle: other
  T/C: 105 % of control
endpoint: median survival time, dose: 39.0 mg/kg/injection, schedule: Q07DX Z (sc), vehicle: other
  T/C: 105 % of control
endpoint: median survival time, dose: 39.0 mg/kg/injection, schedule: Q## X Z (sc), vehicle: other
  T/C: 100 % of control
endpoint: median survival time, dose: 39.0 mg/kg/injection, schedule: Q#A X Z (sc), vehicle: other
  T/C: 110 % of control
endpoint: median survival time, dose: 47.0 mg/kg/injection, schedule: Q01DX Z (oral), vehicle: methylcellulose (MC)
  T/C: 104 % of control
endpoint: median survival time, dose: 47.0 mg/kg/injection, schedule: Q01DX Z (sc), vehicle: other
  T/C: 110 % of control
endpoint: median survival time, dose: 50.0 mg/kg/injection, schedule: Q01DX012 (ip), vehicle: other
  T/C: 155 % of control
